Experimental data as given in publication PMC5146677, “Structural Analysis of Glycine Sarcosine N-methyltransferase from Methanohalophilus portucalensis Reveals Mechanistic Insights into the Regulation of Methyltransferase Activity” (Scientific Reports, 2016).

How the values were obtained:
MpGSMT [1] = biological target: T1, MpGSMT (Methanohalophilus portucalensis, UniProt F6KV61); assay: X-ray crystal structure, co-crystal; assay type: binding; conditions: cofactor site; with sarcosine; 0.1 mM SAH
T1 construct: gene gsmt
T1 sequence (F6KV61 1-263): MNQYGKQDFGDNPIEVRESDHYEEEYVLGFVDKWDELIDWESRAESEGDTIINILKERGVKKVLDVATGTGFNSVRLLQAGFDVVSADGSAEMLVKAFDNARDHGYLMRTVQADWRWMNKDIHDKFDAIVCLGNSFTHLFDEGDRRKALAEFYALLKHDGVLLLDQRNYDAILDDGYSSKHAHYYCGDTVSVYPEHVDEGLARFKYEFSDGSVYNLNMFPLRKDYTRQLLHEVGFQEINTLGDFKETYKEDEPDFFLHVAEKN

MpGSMT [2] = biological target: T1, MpGSMT; assay: X-ray crystal structure, soaking; assay type: binding
MpGSMT [3] = biological target: T2, MpGSMT (Methanohalophilus portucalensis, UniProt F6KV61, H104K); assay: methyltransferase activity with betaine; assay type: biochemical; conditions: feedback inhibitor, allosteric
T2 construct: gene gsmt

MpGSMT [4] = biological target: T3, MpGSMT (Methanohalophilus portucalensis, UniProt F6KV61, N100Q); assay: methyltransferase activity with betaine; assay type: biochemical; conditions: feedback inhibitor, allosteric; mutant has low activity
T3 construct: gene gsmt

MpGSMT [5] = biological target: T1, MpGSMT; assay: X-ray crystal structure, co-crystal and soaking; assay type: binding; conditions: active site; with SAH (5HIL) or SAM (5GWX); inactive conformation
Description: X-ray crystal structure, co-crystal and soaking on […] | crystal structure of […] in complex with the sarcosine substrate and the SAH cofactor

T2 sequence (F6KV61 entry or part of it H104K): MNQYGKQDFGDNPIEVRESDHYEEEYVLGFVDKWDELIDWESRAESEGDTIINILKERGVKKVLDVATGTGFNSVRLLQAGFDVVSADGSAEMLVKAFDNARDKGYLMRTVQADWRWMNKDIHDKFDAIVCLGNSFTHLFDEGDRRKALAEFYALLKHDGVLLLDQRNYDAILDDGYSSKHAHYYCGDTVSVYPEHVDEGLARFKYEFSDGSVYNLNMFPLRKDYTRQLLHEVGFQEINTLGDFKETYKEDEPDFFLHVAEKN
T3 sequence (F6KV61 entry or part of it N100Q): as the sequence (F6KV61 entry or part of it H104K) above, with N100Q, K104H counted along it

Nc1ncnc2c1ncn2[C@@H]1O[C@H](CSCC[C@H](N)C(=O)O)[C@@H](O)[C@H]1O [SAH]
X-ray crystal structure, co-crystal (MpGSMT [1]): Clear electron density is visible for bound sarcosine and SAH

C[S+](CC[C@H](N)C(=O)O)C[C@H]1O[C@@H](n2cnc3c(N)ncnc32)[C@H](O)[C@@H]1O (stereo partly drawn) [SAM]
X-ray crystal structure, soaking (MpGSMT [2]; cofactor site, binary (5HIK) or with sarcosine (5GWX), 2 mM SAM): clear electron density maps corresponding to sarcosine and SAM in the active site

C[N+](C)(C)CC(=O)[O-] [betaine]
betaine sensitivity (MpGSMT [3]): MpGSMT^H104K exhibited increased sensitivity to betaine
X-ray crystal structure, soaking (MpGSMT [2]; allosteric feedback inhibitor site near Trp40, 1.7 M betaine soak): the observed MpGSMT structure indeed harbors a pocket for interacting directly with betaine
betaine sensitivity (MpGSMT [4]): MpGSMT^N100Q displayed a decreased response to betaine

CNCC(=O)O [sarcosine]
X-ray crystal structure, co-crystal and soaking (MpGSMT [5]): crystal structure of MpGSMT in complex with the sarcosine substrate and the SAH cofactor
